The values that follow come from paper PMC7240968, “Synthesis and Biological Evaluation of Imidazo[2,1-b]Thiazole based Sulfonyl Piperazines as Novel Carbonic Anhydrase II Inhibitors” (Metabolites, 2020).

One data set deals with T1, hCA XII (Homo sapiens, UniProt O43570).
T1 construct: made in house
Put plainly: stopped flow CO2 hydrase assay, hCA XII. Format: biochemical. The following applies: recombinant tumor associated isoform; mean from 3 different assays, errors ±5–10%. On the procedure:
(§1) The newly synthesized imidazo[2,1-b]thiazole-sulfonyl piperazines (9aa-ee) were screened for their CA inhibition activity against cytosolic (hCA I, hCA II) and the tumor associated (hCA IX, hCAXII) isoforms by a stopped flow CO2 hydrase assay.
(§2) The inhibition assay of selected CA isozymes was performed using SX.18V-R Applied Photophysics (Oxford, UK) stopped flow instrument. 10 mM Hepes (pH 7.4) as a buffer, with Phenol Red (at a concentration of 0.2 mM) as an indicator, 0.1M Na2SO4 or NaClO4 (To maintain the constant ionic strength; these anions are not inhibitory in the used concentration), following the CA-catalyzed CO2 hydration reaction for a period of 5–10 s. […] Stock solutions of inhibitors were prepared at a concentration of 10 mM (in DMSO-water 1:1 v/v) and dilutions up to 0.01 nM done with the assay buffer mentioned above. […] Inhibitor and enzyme solutions were pre-incubated together for 10 min at room temperature prior to assay, in order to allow for the formation of the E-I complex. […] The inhibition constants were obtained by non-linear least square methods using the Cheng-Prusoff equation, as reported earlier, [24, 25] and represent the mean from at least three different determinations. All CA isozymes used here were recombinant proteins obtained as reported earlier by our group.

In a further data set the target is T2, hCA II (Homo sapiens, UniProt P00918).
T2 construct: made in house
Kind of data set: stopped flow CO2 hydrase assay, hCA II. The class given is biochemical. The following applies: recombinant cytosolic isoform; mean from 3 different assays, errors ±5–10%. As to the method: as §1, §2

The target in another data set is T3, hCA IX (Homo sapiens, UniProt Q16790).
T3 construct: made in house
Kind of data set: stopped flow CO2 hydrase assay, hCA IX. Format: biochemical. To be noted: recombinant tumor associated isoform; mean from 3 different assays, errors ±5–10%. On the procedure:
as §1, §2

For the next data set, the target named is T4, hCA I (Homo sapiens, UniProt P00915).
T4 construct: made in house
T4 sequence (P00915 whole entry): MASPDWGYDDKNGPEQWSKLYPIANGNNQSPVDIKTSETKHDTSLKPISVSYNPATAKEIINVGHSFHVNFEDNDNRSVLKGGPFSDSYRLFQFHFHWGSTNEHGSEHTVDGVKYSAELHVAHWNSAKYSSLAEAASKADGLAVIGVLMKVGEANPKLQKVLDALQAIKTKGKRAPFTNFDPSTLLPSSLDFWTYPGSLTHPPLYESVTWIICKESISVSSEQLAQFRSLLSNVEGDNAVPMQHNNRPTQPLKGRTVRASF
Put plainly: stopped flow CO2 hydrase assay, hCA I. Format: biochemical. To be noted: recombinant cytosolic isoform; mean from 3 different assays, errors ±5–10%. As to the method:
as §1, §2

T1 sequence (O43570 25-354): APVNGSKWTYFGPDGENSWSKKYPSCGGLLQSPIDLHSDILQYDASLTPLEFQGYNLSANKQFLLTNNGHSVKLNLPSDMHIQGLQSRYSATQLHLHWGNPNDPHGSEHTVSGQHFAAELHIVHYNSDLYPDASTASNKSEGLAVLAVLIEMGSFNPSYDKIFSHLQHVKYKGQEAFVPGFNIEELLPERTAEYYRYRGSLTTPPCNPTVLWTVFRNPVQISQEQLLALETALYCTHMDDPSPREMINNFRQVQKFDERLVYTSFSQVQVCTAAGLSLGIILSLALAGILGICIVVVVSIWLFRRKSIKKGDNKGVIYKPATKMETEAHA

As for “(5-(4-Fluorophenyl)imidazo[2,1-b]thiazol-2-yl)(4-tosylpiperazin-1-yl)methanone [Compound 9db]”, the Ki on hCA XII, at hCA II, on hCA IX and on hCA I was > 100 µM throughout.

“(5-(4-Methoxyphenyl)imidazo[2,1-b]thiazol-2-yl)(4-((4-methoxyphenyl)sulfonyl)piperazin-1-yl)methanone [Compound 9aa]”: the Ki on hCA XII, on hCA II, on hCA IX and on hCA I was > 100 µM in each case.

For the compound “(5-Phenylimidazo[2,1-b]thiazol-2-yl)(4-(phenylsulfonyl)piperazin-1-yl)methanone [Compound 9ed]”, the Ki on hCA XII, on hCA II, at hCA IX and at hCA I was > 100 µM throughout.

In the case of “(5-(4-Chlorophenyl)imidazo[2,1-b]thiazol-2-yl)(4-tosylpiperazin-1-yl)methanone [Compound 9cb]”, the Ki at hCA XII, at hCA II, at hCA IX and at hCA I was > 100 µM in each case.

Regarding “(4-((4-(Tert-butyl)phenyl)sulfonyl)piperazin-1-yl)(5-(4-fluorophenyl)imidazo[2,1-b]thiazol-2-yl)methanone [Compound 9de]”, the Ki at hCA XII, on hCA II, at hCA IX and at hCA I was > 100 µM throughout.

Consider “(5-(4-Chlorophenyl)imidazo[2,1-b]thiazol-2-yl)(4-((4-chlorophenyl)sulfonyl)piperazin-1-yl)methanone [Compound 9cc]”, for which the Ki (commonly the equilibrium dissociation constant of an inhibitor or competing ligand from its target) at hCA XII is > 100 µM; on hCA II it was 57.8 µM; on hCA IX it was > 100 µM; at hCA I, > 100 µM.

With “(5-(4-Chlorophenyl)imidazo[2,1-b]thiazol-2-yl)(4-(phenylsulfonyl)piperazin-1-yl)methanone [Compound 9cd]”, the Ki on hCA XII is > 100 µM; on hCA II it was 71.2 µM; on hCA IX it was > 100 µM; on hCA I it was > 100 µM.

Consider “(5-(p-Tolyl)imidazo[2,1-b]thiazol-2-yl)(4-tosylpiperazin-1-yl)methanone [Compound 9bb]”, for which the inhibitory constant (Ki) is > 100 µM at hCA XII, 76.4 µM on hCA II, > 100 µM on hCA IX and > 100 µM at hCA I.

As to “(5-(4-Chlorophenyl)imidazo[2,1-b]thiazol-2-yl)(4-((4-methoxyphenyl)sulfonyl)piperazin-1-yl)methanone [Compound 9ca]”, the Ki at hCA XII was > 100 µM; at hCA II, 79.9 µM; on hCA IX, > 100 µM; on hCA I, > 100 µM.

As for “(5-(4-Fluorophenyl)imidazo[2,1-b]thiazol-2-yl)(4-((4-methoxyphenyl)sulfonyl)piperazin-1-yl)methanone [Compound 9da]”, the Ki is > 100 µM on hCA XII, 67.9 µM on hCA II, > 100 µM at hCA IX and > 100 µM on hCA I.

For the compound “(4-((4-Methoxyphenyl)sulfonyl)piperazin-1-yl)(5-(p-tolyl)imidazo[2,1-b]thiazol-2-yl)methanone [Compound 9ba]”, the Ki at hCA XII, on hCA II, on hCA IX and at hCA I was > 100 µM throughout.

Regarding “(4-((4-Methoxyphenyl)sulfonyl)piperazin-1-yl)(5-phenylimidazo[2,1-b]thiazol-2-yl)methanone [Compound 9ea]”, the Ki at hCA XII, on hCA II, at hCA IX and on hCA I was > 100 µM in each case.

Turning to “(5-Phenylimidazo[2,1-b]thiazol-2-yl)(4-tosylpiperazin-1-yl)methanone [Compound 9eb]”, the Ki at hCA XII, on hCA II, on hCA IX and at hCA I was > 100 µM throughout.

As to “(5-(4-Fluorophenyl)imidazo[2,1-b]thiazol-2-yl)(4-(phenylsulfonyl)piperazin-1-yl)methanone [Compound 9dd]”, the Ki on hCA XII, on hCA II, on hCA IX and at hCA I was > 100 µM in each case.

In the case of “(5-(4-Methoxyphenyl)imidazo[2,1-b]thiazol-2-yl)(4-(phenylsulfonyl)piperazin-1-yl)methanone [Compound 9ad]”, the Ki at hCA XII, on hCA II, on hCA IX and on hCA I was > 100 µM throughout.

For the compound “(4-((4-(Tert-butyl)phenyl)sulfonyl)piperazin-1-yl)(5-(4-chlorophenyl)imidazo[2,1-b]thiazol-2-yl)methanone [Compound 9ce]”, the Ki at hCA XII was > 100 µM; at hCA II, 62.1 µM; at hCA IX it was > 100 µM; on hCA I, > 100 µM.

Turning to “(4-((4-Chlorophenyl)sulfonyl)piperazin-1-yl)(5-(4-fluorophenyl)imidazo[2,1-b]thiazol-2-yl)methanone [Compound 9dc]”, the Ki was > 100 µM on hCA XII, 98.2 µM at hCA II, > 100 µM at hCA IX and > 100 µM on hCA I.

On to `Cc1ccc(-c2cnc3sc(C(=O)N4CCN(S(=O)(=O)c5ccc(C(C)(C)C)cc5)CC4)cn23)cc1` [Compound 9bd, (4-((4-(Tert-butyl)phenyl)sulfonyl)piperazin-1-yl)(5-(p-tolyl)imidazo[2,1-b]thiazol-2-yl)methanone], for which the melting point (usually the temperature, or range, at which the solid turns liquid) fell in the range of 222 to 224 °C.

Regarding “(4-((4-Chlorophenyl)sulfonyl)piperazin-1-yl)(5-phenylimidazo[2,1-b]thiazol-2-yl)methanone [Compound 9ec]”, the Ki on hCA XII, on hCA II, on hCA IX and at hCA I was > 100 µM each time.
